Measurements published in patent EP3922250A1, “COMPOSITION FOR CORRECTING THE BEHAVIOUR OF CATS AND DOGS” (priority 2019, dated 2021).
“And” between values parts separate entries of the source, which are not always exact repeats. Identical values can stand only once. Counter-ions that a name gives are not always drawn.

Experiments:
[1] = in vivo; cited from earlier work
male cats = tested on: male cats
Description: The trials enrolled apparently healthy entire animals (8 male cats and 8 female cats) aged 2 to 6 years, weighing 3 to 4 kg, kept in foster care at BIM Animal Shelter. The females were introduced into the study as they went into estrus. Table XII. Registration details of the cats enrolled in the experiment
Male cats with pronounced signs of heat were placed in individual cages in a dedicated room where 2 female cats in heat were present (in separate cages in the same room). TR Succinate in the tablet form (for the experimental animals) and placebo tablets (for the control animals) were given in accordance with the same design as in the experiment with female cats. Follow-up observation over the animals was carried out in a similar manner.

domestic cats = settings: 48 to 50 mg per capita (averaging 10 to 14 mg/kg), one hour after administration
Description: Based on the data obtained by observing animals under stress, the most frequent symptoms of anxiety and fear common to various stressful situations were selected to assess the severity of their abnormal behavior. They included vocalizing, hypersalivation, overgrooming, abnormal (higher or lower) motion activity, soiling (urination and/or defecation), and 'destructive behavior' consisting in signs of aggression, attempts at damaging ambient objects, etc. For each symptom (based on its severity), points from 0 to 2 were given, which subsequently were totalized individually for each animal or, where appropriate, for a whole group of animals to determine an average value.
For each of the 6 symptoms (based on its severity), points from 0 to 2 were given, which subsequently were totalized individually for each animal. Therein, a total score of more than 6 points (out of possible 12) was considered to be indicative of an apparent severity of abnormal (changed) behavior.
To carry out the experiment, 6 domestic cats of different sex and age, weighing 3.5 to 5 kg, were selected, who, according to their owners, felt bad during transportation, showing various forms of abnormal behavior. Herein, the actual presence of stress symptoms and their severity for each cat were assessed from video data provided by their owners. […]

White Rats = assay: Acute oral toxicity testing, intragastric administration (Miller and Tainter); settings: for % of deaths / Number of Animals dead: 10 per group, 14 days follow-up
Description: (§1) This parameter was evaluated on mice and rats in accordance with a conventional procedure for acute toxicity testing of medicinal products (Example 2).
(§2) In each case, 7 experimental groups and 1 control group of white rats and 7 experimental and 1 control groups of white mice, 10 individuals in each, were formed. The product was administered via an intragastric tube in accordance with the design described in Table I. 1% starch gel was used as the suspending agent.
(§3) Follow-up period was 14 days. The observation included general condition, behavior, feed and water intake, manifestation of intoxication symptoms, possible deaths.

female cats = assay: Suppression of behavioral signs of heat in female cats
White Mice = assay: Acute oral toxicity testing, intragastric administration (Miller and Tainter); settings: for % of deaths / Number of Animals dead: 10 per group, 14 days follow-up
Description: as §1, §2, §3

[2] = one 100 mg tablet (24 mg active ingredient, 6-8 mg/kg) oral, individual male cats
[3] = substance, intragastric, in 1% starch gel
[4] = substance, intragastric, in 1% starch gel, 20160 min
[5] = female and male cats in heat, single dose 6-8 mg/kg
[6] = one 100 mg tablet (24 mg active ingredient, 6-8 mg/kg) oral, individual female cats

O=c1n(CCCN2CCN(c3cccc(Cl)c3)CC2)nc2ccccn12 [TR, Trazodone]
amount of plasma protein binding [1]: 89-95%
excreted from the body via the kidneys [1]: 75%
excreted unchanged with bile [1]: about 20%
time to reach complete excretion of the substance [1]: 98 h

Trazodone Succinate
abnormal behaviors (male cats; in vivo): no abnormal behaviors were observed
Total intensity of heat signs after the product administration (points) after 30 minutes (male cats; [2]): 5 points (3×) and 6 points and 4 points (2×)
Total intensity of heat signs after the product administration (points) after 3 hours (male cats; [2]): 1 points (4×) and 2 points (2×)
Total intensity of heat signs after the product administration (points) after 6 hours (male cats; [2]): 2 points (4×) and 1 points (2×)
sedative action onto the animals (domestic cats): pronounced sedative actions of comparable efficacy
% of deaths (White Rats; 400 mg/kg intragastric): 0%
Number of Animals dead (White Rats; 400 mg/kg intragastric): 0
% of deaths (White Rats; 800 mg/kg intragastric): 20.0%
Number of Animals dead (White Rats; 800 mg/kg intragastric): 2
% of deaths (White Rats; 1600 mg/kg intragastric): 40.0%
Number of Animals dead (White Rats; 1600 mg/kg intragastric): 4
% of deaths (White Rats; 2700 mg/kg intragastric): 70.0%
Number of Animals dead (White Rats; 2700 mg/kg intragastric): 7
% of deaths (White Rats; 3000 mg/kg intragastric): 100.0%
Number of Animals dead (White Rats; 3000 mg/kg intragastric): 10
% of deaths (White Rats; 3500 mg/kg intragastric): 100.0%
Number of Animals dead (White Rats; 3500 mg/kg intragastric): 10
LD16 (White Rats; [3]): 760 mg/kg
LD84 (White Rats; [3]): 2730 mg/kg
LD100 (White Rats; [3]): 2945 mg/kg
LD50 (White Rats; [4]): 2300 (2079.5-2520.5) mg/kg
MTD (White Rats; [4]): 400 mg/kg
side effects, such as pronounced hypnotic action, atony, slowness or dystaxia (female cats; experimental group female cats, during the experiment): No side effects
start of the sedative action after the product administration (female cats; [5]): 30 min
time the sedative action remained (female cats; [5]): at least 6 hours
time to maximum sedative action (substantially complete disappearance of estrous behavior signs) (female cats; [5]): 1 h
Total intensity of heat signs after the product administration (points) after 30 minutes (female cats; [6]): 5 points (3×) and 6 points and 4 points (2×)
Total intensity of heat signs after the product administration (points) after 1 hour (female cats; [6]): 0 points (4×) and 1 points (2×)
Total intensity of heat signs after the product administration (points) after 3 hours (female cats; [6]): 1 points (5×) and 2 points
Total intensity of heat signs after the product administration (points) after 6 hours (female cats; [6]): 2 points (4×) and 1 points (2×)
Total intensity of heat signs after the product administration (points) after 8 hours (female cats; [6]): 4 points (2×) and 1 points (3×) and 5 points
% of deaths (White Mice; 400 mg/kg intragastric): 0%
Number of Animals dead (White Mice; 400 mg/kg intragastric): 0
% of deaths (White Mice; 800 mg/kg intragastric): 10.0%
Number of Animals dead (White Mice; 800 mg/kg intragastric): 1
% of deaths (White Mice; 1600 mg/kg intragastric): 70.0%
Number of Animals dead (White Mice; 1600 mg/kg intragastric): 7
% of deaths (White Mice; 2000 mg/kg intragastric): 100.0%
Number of Animals dead (White Mice; 2000 mg/kg intragastric): 10
% of deaths (White Mice; 2500 mg/kg intragastric): 100.0%
Number of Animals dead (White Mice; 2500 mg/kg intragastric): 10
% of deaths (White Mice; 3000 mg/kg intragastric): 100.0%
Number of Animals dead (White Mice; 3000 mg/kg intragastric): 10
Hazard class according to GOST 12.1.007-76 (White Mice; classified from the LD50 values in mice and rats): Hazard Class III
LD16 (White Mice; [3]): 840 mg/kg
LD84 (White Mice; [3]): 1690 mg/kg
LD100 (White Mice; [3]): 1935 mg/kg
LD50 (White Mice; [4]): 1200 (1091.6-1308.4) mg/kg
MTD (White Mice; [4]): 400 mg/kg

O=c1n(CCCN2CCN(c3cccc(Cl)c3)CC2)nc2ccccn12 [Trazodone Hydrochloride, reference compound]
sedative action onto the animals (domestic cats): pronounced sedative actions of comparable efficacy
